Measurements: patent US20260048043A1, “HIGH LOADING ORAL FILM FORMULATION WITH IMPROVED BIOAVAILABILITY” (INTELGENX CORP., priority 2022, published 2026)

Assay: Compatibility of maropitant with polyacid polymers (precipitate formation)
Format: physicochemical
Conditions: neutral pH

COc1ccc(C(C)(C)C)cc1CN[C@H]1C2CCN(CC2)[C@H]1C(c1ccccc1)c1ccccc1 [Maropitant, (2S,3S)-(Diphenylmethyl)-N-[2-methoxy-5-(2-methyl-2-propanyl)benzyl]quinuclidin-3-amine]
precipitate formation with polyacid polymer(s) such as CMC, Carbomer and polycarbophil: precipitate was formed
